This note sets out measurements from patent publication US20080161289A1, “Fused Thiazole Derivatives Having Affinity for the Histamine H3 Receptor” (Glaxo Group Limited, priority 2005, published 2008).

T1 sequence (Q9Y5N1 whole entry): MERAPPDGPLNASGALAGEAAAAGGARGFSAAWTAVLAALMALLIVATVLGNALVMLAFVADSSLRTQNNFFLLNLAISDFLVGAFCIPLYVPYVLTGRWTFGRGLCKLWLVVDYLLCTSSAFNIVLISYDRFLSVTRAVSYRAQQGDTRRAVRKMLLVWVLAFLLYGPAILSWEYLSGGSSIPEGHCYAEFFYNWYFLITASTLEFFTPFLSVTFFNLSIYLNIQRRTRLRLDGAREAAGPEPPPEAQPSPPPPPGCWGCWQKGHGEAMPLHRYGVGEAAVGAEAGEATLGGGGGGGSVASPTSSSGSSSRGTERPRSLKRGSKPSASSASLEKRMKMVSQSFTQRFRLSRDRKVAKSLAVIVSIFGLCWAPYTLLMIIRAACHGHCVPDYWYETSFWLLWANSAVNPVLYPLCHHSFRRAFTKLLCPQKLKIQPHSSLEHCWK

This assay concerns the target T1, histamine H3 receptors (Homo sapiens, UniProt Q9Y5N1).
T1 construct: expressed in transfected cells; host or cells: CHO K1 cells carrying pSwitch, transfected with pGeneH3, induced with mifepristone; clone 3H3; membrane preparation
The assay is described as follows: Histamine H3 functional antagonist assay ([35S]-GTPγS SPA on membranes from H3 cells). Conditions: hydrochloride salts tested; H3 functional antagonist assay using membrane prepared from cultured H3 cells; averages of a number of experiments; read-out: functional pKi (fpKi) (converted). Format: biochemical. The source says: A membrane preparation containing histamine H3 receptors may be prepared in accordance with the following procedures:
(i) Generation of Histamine H3 Cell Line
DNA encoding the human histamine H3 gene (Huvar, A. et al. (1999) Mol. Pharmacol. 55(6), 1101-1107) was cloned into a holding vector, pCDNA3.1 TOPO (InVitrogen) and its cDNA was isolated from this vector by restriction digestion of plasmid DNA with the enzymes BamHI and Not-1 and ligated into the inducible expression vector pGene (InVitrogen) digested with the same enzymes. The GeneSwitch™ system (a system where in transgene expression is switched off in the absence of an inducer and switched on in the presence of an inducer) was performed as described in U.S. Pat. Nos. 5,364,791; 5,874,534; and 5,935,934. Ligated DNA was transformed into competent DH5α E. coli host bacterial cells and plated onto Luria Broth (LB) agar containing Zeocin™ (an antibiotic which allows the selection of cells expressing the sh ble gene which is present on pGene and pSwitch) at 50 μg ml^−1. Colonies containing the re-ligated plasmid were identified by restriction analysis. DNA for transfection into mammalian cells was prepared from 250 ml cultures of the host bacterium containing the pGeneH3 plasmid and isolated using a DNA preparation kit (Qiagen Midi-Prep) as per manufacturers guidelines (Qiagen).
CHO K1 cells previously transfected with the pSwitch regulatory plasmid (InVitrogen) were seeded at 2×10e6 cells per T75 flask in Complete Medium, containing Hams F12 (GIBCOBRL, Life Technologies) medium supplemented with 10% v/v dialysed foetal bovine serum, L-glutamine, and hygromycin (100 μg ml^−1), 24 hours prior to use. Plasmid DNA was transfected into the cells using Lipofectamine plus according to the manufacturers guidelines (InVitrogen). 48 hours post transfection cells were placed into complete medium supplemented with 500 μg ml^−1 Zeocin™.
10-14 days post selection 10 nM Mifepristone (InVitrogen), was added to the culture medium to induce the expression of the receptor. 18 hours post induction cells were detached from the flask using ethylenediamine tetra-acetic acid (EDTA; 1:5000; InVitrogen), following several washes with phosphate buffered saline pH 7.4 and resuspended in Sorting Medium containing Minimum Essential Medium (MEM), without phenol red, and supplemented with Earles salts and 3% Foetal Clone II (Hyclone). Approximately 1×10e7 cells were examined for receptor expression by staining with a rabbit polyclonal antibody, 4a, raised against the N-terminal domain of the histamine H3 receptor, incubated on ice for 60 minutes, followed by two washes in sorting medium. Receptor bound antibody was detected by incubation of the cells for 60 minutes on ice with a goat anti rabbit antibody, conjugated with Alexa 488 fluorescence marker (Molecular Probes). Following two further washes with Sorting Medium, cells were filtered through a 50 μm Filcon™ (BD Biosciences) and then analysed on a FACS Vantage SE Flow Cytometer fitted with an Automatic Cell Deposition Unit. Control cells were non-induced cells treated in a similar manner. Positively stained cells were sorted as single cells into 96-well plates, containing Complete Medium containing 500 μg ml^−1 Zeocin™ and allowed to expand before reanalysis for receptor expression via antibody and ligand binding studies. One clone, 3H3, was selected for membrane preparation.
(ii) Membrane Preparation from Cultured Cells
All steps of the protocol are carried out at 4° C. and with pre-cooled reagents. The cell pellet is resuspended in 10 volumes of homogenisation buffer (50 mM N-2-hydroxyethylpiperazine-N′-2-ethanesulfonic acid (HEPES), 1 mM ethylenediamine tetra-acetic acid (EDTA), pH 7.4 with KOH, supplemented with 10e-6M leupeptin (acetyl-leucyl-leucyl-arginal; Sigma L2884), 25 μg/ml bacitracin (Sigma B0125), 1 mM phenylmethylsulfonyl fluoride (PMSF) and 2×10e-6M pepstain A (Sigma)). […]
On the technique in general: Binding of GTPγS marks nucleotide exchange on a G protein.
On to `CN1CCN(c2ccc(-c3nc4c(s3)CCN(C3CCCC3)CC4)cc2)C1=O` [Example E28, 1-[4-(6-Cyclopentyl-5,6,7,8-tetrahydro-4H-[1,3]thiazolo[4,5-d]azepin-2-yl)phenyl]-3-methyl-2-imidazolidinone], for which the Ki is less than 0.316 nM.
With `CC(C)N1CCc2nc(-c3ccc(N4CCN(C)C4=O)cc3)sc2CC1` [Example E29, 1-Methyl-3-{4-[6-(1-methylethyl)-5,6,7,8-tetrahydro-4H-[1,3]thiazolo[4,5-d]azepin-2-yl]phenyl}-2-imidazolidinone] the figure was less than 1.26 nM; with `CN1CCN(c2ccc(-c3nc4c(s3)CCN(C3CCCCC3)CC4)cc2)C1=O` [Example E30, 1-[4-(6-Cyclohexyl-5,6,7,8-tetrahydro-4H-[1,3]thiazolo[4,5-d]azepin-2-yl)phenyl]-3-methyl-2-imidazolidinone], less than 1.26 nM; with `CN1CCN(c2ccc(-c3nc4c(s3)CCN(CC3CC3)CC4)cc2)C1=O` [Example E31, 1-{4-[6-(Cyclopropylmethyl)-5,6,7,8-tetrahydro-4H-[1,3]thiazolo[4,5-d]azepin-2-yl]phenyl}-3-methyl-2-imidazolidinone], less than 1.26 nM.
Consider `CC(C)CN1CCc2nc(-c3ccc(N4CCN(C)C4=O)cc3)sc2CC1` [Example E32, 1-Methyl-3-{4-[6-(2-methylpropyl)-5,6,7,8-tetrahydro-4H-[1,3]thiazolo[4,5-d]azepin-2-yl]phenyl}-2-imidazolidinone], for which the Ki was less than 0.316 nM.
`N#Cc1cncc(N2CCC(c3nc4c(s3)CCN(C3CCC3)CC4)C2)c1` (stereo not drawn) [Example E39, 5-[3-(6-Cyclobutyl-5,6,7,8-tetrahydro-4H-[1,3]thiazolo[4,5-d]azepin-2-yl)-1-pyrrolidinyl]-3-pyridinecarbonitrile]: the Ki is less than 1.26 nM.
Consider `c1ccc(-c2nc3c(s2)CCN(C2CCC2)CC3)cc1` [Example E42, 6-Cyclobutyl-2-phenyl-5,6,7,8-tetrahydro-4H-[1,3]thiazolo[4,5-d]azepine], for which the Ki was less than 31.6 nM.
The figure for `CNC(=O)c1ccc(-c2nc3c(s2)CCN(C2CCC2)CC3)cc1` [Example E43, 4-(6-Cyclobutyl-5,6,7,8-tetrahydro-4H-[1,3]thiazolo[4,5-d]azepin-2-yl)-N-methylbenzamide] is less than 1.26 nM; for `O=C1OCCN1c1ccc(-c2nc3c(s2)CCN(C2CCC2)CC3)cc1` [Example E44, 3-[4-(6-Cyclobutyl-5,6,7,8-tetrahydro-4H-[1,3]thiazolo[4,5-d]azepin-2-yl)phenyl]-1,3-oxazolidin-2-one] it is less than 0.316 nM.
On to `N#Cc1ccc(-c2nc3c(s2)CCN(C2CCC2)CC3)cc1` [Example E48, 4-(6-Cyclobutyl-5,6,7,8-tetrahydro-4H-[1,3]thiazolo[4,5-d]azepin-2-yl)benzonitrile], for which the Ki was less than 1.26 nM.
Take `N#Cc1ccc(-c2nc3c(s2)CCN(C2CCC2)CC3)cn1` [Example E49, 5-(6-Cyclobutyl-5,6,7,8-tetrahydro-4H-[1,3]thiazolo[4,5-d]azepin-2-yl)-2-pyridinecarbonitrile]: the Ki was less than 31.6 nM.
The figure for `CNC(=O)c1ccc(-c2nc3c(s2)CCN(C2CCC2)CC3)cn1` [Example E51, 5-(6-Cyclobutyl-5,6,7,8-tetrahydro-4H-[1,3]thiazolo[4,5-d]azepin-2-yl)-N-methyl-2-pyridinecarboxamide] is less than 1.26 nM; for `O=C1CCCN1c1ccc(-c2nc3c(s2)CCN(C2CCC2)CC3)cn1` [Example E52, 1-[5-(6-Cyclobutyl-5,6,7,8-tetrahydro-4H-[1,3]thiazolo[4,5-d]azepin-2-yl)-2-pyridinyl]-2-pyrrolidinone] it is less than 0.316 nM; for `CN1CCN(c2ccc(-c3nc4c(s3)CCN(C3CCC3)CC4)cn2)C1=O` [Example E53, 1-[5-(6-Cyclobutyl-5,6,7,8-tetrahydro-4H-[1,3]thiazolo[4,5-d]azepin-2-yl)-2-pyridinyl]-3-methyl-2-imidazolidinone] it is less than 0.316 nM.
As to `c1cc(N2CCCCC2)ncc1-c1nc2c(s1)CCN(C1CCC1)CC2` [Example E55, 6-Cyclobutyl-2-[6-(1-piperidinyl)-3-pyridinyl]-5,6,7,8-tetrahydro-4H-[1,3]thiazolo[4,5-d]azepine], the Ki is less than 1.26 nM.
On to `c1ncc(-c2nc3c(s2)CCN(C2CCC2)CC3)cn1` [Example E58, 6-Cyclobutyl-2-(5-pyrimidinyl)-5,6,7,8-tetrahydro-4H-[1,3]thiazolo[4,5-d]azepine], for which the Ki is less than 31.6 nM.
Regarding `c1nc(N2CCCCC2)ncc1-c1nc2c(s1)CCN(C1CCC1)CC2` [Example E61, 6-Cyclobutyl-2-[2-(1-piperidinyl)-5-pyrimidinyl]-5,6,7,8-tetrahydro-4H-[1,3]thiazolo[4,5-d]azepine], the Ki was less than 31.6 nM.
Regarding `N#Cc1cncc(N2CCC(c3nc4c(s3)CCN(C3CCC3)CC4)CC2)c1` [Example E66, 5-[4-(6-Cyclobutyl-5,6,7,8-tetrahydro-4H-[1,3]thiazolo[4,5-d]azepin-2-yl)-1-piperidinyl]-3-pyridinecarbonitrile], the Ki was less than 1.26 nM.
As for `N#Cc1ccc(N2CCC(c3nc4c(s3)CCN(C3CCC3)CC4)CC2)cc1` [Example E67, 4-[4-(6-Cyclobutyl-5,6,7,8-tetrahydro-4H-[1,3]thiazolo[4,5-d]azepin-2-yl)-1-piperidinyl]benzonitrile], the Ki was less than 0.316 nM.
As for `Cc1ccccc1NC(=O)N1CCC(c2nc3c(s2)CCN(C2CCC2)CC3)CC1` [Example E70, 4-(6-Cyclobutyl-5,6,7,8-tetrahydro-4H-[1,3]thiazolo[4,5-d]azepin-2-yl)-N-(2-methylphenyl)-1-piperidinecarboxamide], the Ki is less than 1.26 nM.
On to `N#Cc1ccc(-c2nc3c(s2)CCN(C2CCCC2)CC3)nc1` [Example E74, 6-(6-Cyclopentyl-5,6,7,8-tetrahydro-4H-[1,3]thiazolo[4,5-d]azepin-2-yl)-3-pyridinecarbonitrile], for which the Ki was less than 31.6 nM.
With `CNC(=O)c1ccc(-c2nc3c(s2)CCN(C2CCC2)CC3)nc1` [Example E76, 6-(6-Cyclobutyl-5,6,7,8-tetrahydro-4H-[1,3]thiazolo[4,5-d]azepin-2-yl)-N-methyl-3-pyridinecarboxamide] the figure was less than 31.6 nM.
On to `CNC(=O)c1ccc(N2CCC(c3nc4c(s3)CCN(C3CCC3)CC4)CC2)cn1` [Example E77, 5-[4-(6-Cyclobutyl-5,6,7,8-tetrahydro-4H-[1,3]thiazolo[4,5-d]azepin-2-yl)-1-piperidinyl]-N-methyl-2-pyridinecarboxamide], for which the Ki was less than 1.26 nM.
Take `Cc1ccccc1C(=O)N1CCC(c2nc3c(s2)CCN(C2CCC2)CC3)CC1` [Example E78, 6-Cyclobutyl-2-{1-[(2-methylphenyl)carbonyl]-4-piperidinyl}-5,6,7,8-tetrahydro-4H-[1,3]thiazolo[4,5-d]azepine]: the Ki was less than 0.316 nM.
For the molecule `Cc1cc(C(=O)N2CCC(c3nc4c(s3)CCN(C3CCC3)CC4)CC2)[nH]n1` [Example E79, 6-Cyclobutyl-2-{1-[(3-methyl-1H-pyrazol-5-yl)carbonyl]-4-piperidinyl}-5,6,7,8-tetrahydro-4H-[1,3]thiazolo[4,5-d]azepine], the Ki was less than 1.26 nM.
On to `O=C(c1ccc(Cl)cc1)N1CCC(c2nc3c(s2)CCN(C2CCC2)CC3)CC1` [Example E80, 2-{1-[(4-Chlorophenyl)carbonyl]-4-piperidinyl}-6-cyclobutyl-5,6,7,8-tetrahydro-4H-[1,3]thiazolo[4,5-d]azepine], for which the Ki is less than 1.26 nM.
In the case of `O=C(c1cccc(Cl)c1)N1CCC(c2nc3c(s2)CCN(C2CCC2)CC3)CC1` [Example E81, 2-{1-[(3-Chlorophenyl)carbonyl]-4-piperidinyl}-6-cyclobutyl-5,6,7,8-tetrahydro-4H-[1,3]thiazolo[4,5-d]azepine], the Ki was less than 0.316 nM.
